# Source: patent US20180353524A1, “CANCER TREATMENT USING 2-DEOXY-2-FLUORO-L-FUCOSE IN COMBINATION WITH A CHECKPOINT INHIBITOR” (SEATTLE GENETICS, INC., priority 2015, published 2018)
# Assays:
# A20 tumor vaccine model = assay: Serum cytokines in A20 vaccine model; format: in vivo; settings: BALB/c mice, with KLH-Idiotype vaccine vs KLH-Idiotype alone, no depletion
# Experimental: KLH-A20 Id Fab was generated as described in Okeley et al PNAS 2012. A20 cells (ATCC) were cultured in RPMI 1640 with 10% FBS, 10 mM HEPES, 1 mM sodium pyruvate, 50 μM 2-mercaptoethanol and penicillin (100 U/ml)/streptomycin (100 μg/ml) (PS) Immunization groups (BALB/c, Harlan) were injected subcutaneously with the KLH-Fab conjugate (50 μg) with TiterMax adjuvant (1:1) on day-21 with a boost on day-7. 2-deoxy-2-fluoro-L-fucose treatment groups received drinking water containing 20 mM 2-deoxy-2-fluoro-L-fucose beginning on day -14. One week after the second vaccination (day 0), all mice received 2.5×10^6 A20 tumor cells (i.v.). 2-deoxy-2-fluoro-L-fucose treatment was continued until day 21 followed by normal drinking water. Depletion of immune cells was accomplished with depleting antibodies administered on days-6, -5, -4, 0 and +7 (200 μg/mouse i.p.). CD4 or CD8 T-cells depletion by anti-CD4 (GK1.5) or -CD8 (53-6.72) antibody was verified in blood at day-1, 7, 14, 21, 29 (FACS analysis). […] Thus CD4 and CD8 T-cells play a role in the combination activity.
# Tissue culture supernatants from T-cell/DC co-cultures described previously were collected and assessed for cytokine changes by Luminex assay. Similarly, blood samples from an A20 vaccine model study were allowed to clot and serum was collected for analysis of cytokines (MCYTOMAG01L1X-13 Mouse Cytokine Magnetic Bead Panel, Millipore).
# [1] = system: T-cells (TCR binding of antigen specific tetramers); assay: Tetramer staining of T-cells; format: cell-based, human; settings: T-cells expanded with 100 μM
# SMAD2 = assay: TGFβ signaling, pSMAD2 western blot in T-cells; format: cell-based, human; settings: TGFβ 5 ng/mL for 10 min after 6 h serum starvation
# Experimental: Cells were plated in 6-well dishes (2.5×10^6 cells/well) with serum-free RPMI medium (1% PS, 2.5 mL) and after 6 h of serum starvation, cells were stimulated with TGFβ (5 ng/mL) for 10 min. The cells were harvested, washed twice in PBS, and snap frozen on dry ice followed by storage at −80 ° C. Cells were lysed with RIPA buffer (containing DNAse and protease/phosphatase inhibitors). As described previously, cell lysates were run on SDS-PAGE and examined by western blot on nitrocellulose membranes with anti-pSMAD2 and anti-actin antibodies.
# 4T1 cells = assay: 4T1 mouse tumor study, tumor infiltrating immune cells; format: in vivo, balb/c mice; settings: 4T1 tumors, 20 mM in drinking water
# Experimental: To evaluate the effect of 2FF treatment on tumor infiltrating immune cells balb/c mice were implanted with 4T1 cells (2×10^4 injected sc.) and on the same day started on 20 mM 2FF drinking water. On day 19 (when tumors were approximately ˜250-300 mm^3) or day 28 (when tumors were ˜800-1000 mm^3) tumors were removed, finely minced with a razor blade and suspend in 5 mL cold disassociation buffer (DMEM (high glucose) media, 5% FBS, 1 M HEPES, 2 mg/mL collagenase D (Roche), 0.1 mg/mL DNAse I (50 mg/mL stock in 20 mM Tris-HCL (ph7.5), 1 mM MgCl2, 50% glycerol) and transferred to a Miltenyi C-tube. GentleMACS was run on each tube and the tubes incubated at 37° C. for 40 minutes with continuous rotation. GentleMACS was then run twice and the tubes quickly spun down to collect the tumor in the bottom of the tube. The tube contents was then passed through a 70 μm mesh filter into a 50 mL falcon tube using the rubber stopper of a syringe to gently dissociate the tissue. The filter was washed with 5 mL of cold enzyme inhibitor buffer (DMEM (high glucose), 0.25 M EDTA) and the tube spun down, supernatant discarded and the samples re-suspend in PBS. Cells were then stained with eFluor®506 viability dye (eBioscience) following the manufactures instructions. Cells were washed twice in FACS staining buffer (0.5% FBS, 0.05% NaN3) and immune phenotyped with three different panels of antibodies, each containing an antibody against CD45 to identify immune cells. The cells phenotyped for dendritic cell antigens were stained with the desired antiboides for 30 minutes in the dark on ice, washed twice in staining buffer and resuspended in 1:4 PBS:fixation buffer (Biolgend) and stored at 4° C. overnight. The following day cells were washed in FACS stain buffer and analyzed on the LSRII flow cytometer. The cells phenotyped for T regulatory cells were first stained with the desired antibodies against cell surface antigens for 30 minutes in the dark on ice. […]
# A20 tumor cells = assay: A20 mouse lymphoma study, survival; format: in vivo, BALB/c mice
# Experimental: A20 cells (ATCC) were cultured in RPMI 1640 with 10% FBS, 10 mM HEPES, 1 mM sodium pyruvate, 50 μM 2-mercaptoethanol and penicillin (100 U/ml)/streptomycin (100 μg/ml) (PS). All mice (BALB/c, n=6/group) were implanted with 1×10^5 A20 tumor cells (i.v.) and were divided into four groups: untreated; treated with 2FF only; treated with anti-PD1 antibody only; and treated with a combination of 2FF with anti-PD1 antibody. 2FF treatment groups received drinking water containing 20 mM 2FF beginning on the day of tumor implantand continued throughout the study. Mice not receiving 2FF were provided with normal drinking water. Anti-PD1 antibody (Ebiosciences, clone J43) treatment groups received three doses of 5 mg/kg every three days starting on day 5 post tumor implant. […] This is compared to only 17% survival in the untreated and the anti-PD1 alone treated groups after about 40 days of treatment lasting to the end of the experiment, and also compared to only 17% survival in 2FF alone treated group after 70 days of treatment also lasting to the end of the experiment at ˜90 days.
smiles,measurement,setting,value
C[C@@H]1OC(O)[C@@H](F)[C@H](O)[C@@H]1O (stereo partly drawn) [2-deoxy-2-fluoro-L-fucose],serum cytokines important for immune responses (IL15) in A20 tumor vaccine model,A20 tumor vaccine model,specific increases in cytokines
same,EBV-specific tetramer binding to treated T-cells vs control cells (flow cytometry),[1],increase in EBV-specific tetramer binding
same,"tetramer binding with other antigens (flu, CMV) to treated T-cells vs control cells",[1],slight increases
same,SMAD2 phosphorylation following TGFβ stimulation vs control T-cells,SMAD2,reduced SMAD2 phosphorylation
same,T regulatory cells in tumor,4T1 cells; day 19 after implantation,significantly decreased T regulatory cells
same,dendritic cells in tumor,4T1 cells; day 19 after implantation,increased dendritic cells which are more activated
same,memory and effector T cells in tumor,4T1 cells; day 28 after implantation,increased memory and effector T cells
same,survival compared to the untreated group,"A20 tumor cells; BALB/c mice, i.v. A20 cells, 20 mM 2FF in drinking water, anti-PD1 5 mg/kg q3dx3 from day 5",increased survival compared to the untreated group
same,survival of the mice,"A20 tumor cells; after 70 days of treatment lasting to end of experiment at ~90 days, 20 mM 2FF drinking water",17%
